# In publication PMC3302575 (Biochemistry, 2011):
# How the values were obtained:
# Assay in all cases: copurification, absorption spectroscopy of native protein
# Assay type in all cases: binding
# zebrafish CRY4 (ZfCRY4) = target: T1, zebrafish CRY4 (ZfCRY4) (Danio rerio, UniProt Q9I912); settings: Sf21 medium with or without F0; pH 7.5
# T1 sequence (Q9I912 1-558): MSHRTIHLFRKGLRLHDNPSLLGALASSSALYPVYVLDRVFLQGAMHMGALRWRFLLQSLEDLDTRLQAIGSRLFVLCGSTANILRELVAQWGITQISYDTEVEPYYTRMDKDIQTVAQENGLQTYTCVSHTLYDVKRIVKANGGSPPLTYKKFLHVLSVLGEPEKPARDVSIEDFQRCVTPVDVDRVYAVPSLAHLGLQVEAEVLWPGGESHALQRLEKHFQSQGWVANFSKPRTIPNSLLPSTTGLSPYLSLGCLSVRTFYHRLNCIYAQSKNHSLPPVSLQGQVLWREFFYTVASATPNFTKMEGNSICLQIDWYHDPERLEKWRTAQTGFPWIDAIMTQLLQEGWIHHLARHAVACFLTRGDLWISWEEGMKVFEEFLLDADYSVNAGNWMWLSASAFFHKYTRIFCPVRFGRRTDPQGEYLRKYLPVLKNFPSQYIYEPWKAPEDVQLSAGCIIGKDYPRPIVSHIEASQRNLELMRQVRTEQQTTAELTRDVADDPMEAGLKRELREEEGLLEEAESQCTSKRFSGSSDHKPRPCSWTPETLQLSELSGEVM
# [1] = target: Drosophila cryptochrome (DmCRY) (Drosophila melanogaster, UniProt O77059); settings: Sf21 medium with or without F0; pH 7.5
# [2] = target: A. thaliana CRY2 (AtCRY2) (Arabidopsis thaliana, UniProt Q96524); settings: Sf21 medium with or without F0; pH 7.4
# Sequence of A. thaliana CRY2 (AtCRY2) (Q96524 whole entry): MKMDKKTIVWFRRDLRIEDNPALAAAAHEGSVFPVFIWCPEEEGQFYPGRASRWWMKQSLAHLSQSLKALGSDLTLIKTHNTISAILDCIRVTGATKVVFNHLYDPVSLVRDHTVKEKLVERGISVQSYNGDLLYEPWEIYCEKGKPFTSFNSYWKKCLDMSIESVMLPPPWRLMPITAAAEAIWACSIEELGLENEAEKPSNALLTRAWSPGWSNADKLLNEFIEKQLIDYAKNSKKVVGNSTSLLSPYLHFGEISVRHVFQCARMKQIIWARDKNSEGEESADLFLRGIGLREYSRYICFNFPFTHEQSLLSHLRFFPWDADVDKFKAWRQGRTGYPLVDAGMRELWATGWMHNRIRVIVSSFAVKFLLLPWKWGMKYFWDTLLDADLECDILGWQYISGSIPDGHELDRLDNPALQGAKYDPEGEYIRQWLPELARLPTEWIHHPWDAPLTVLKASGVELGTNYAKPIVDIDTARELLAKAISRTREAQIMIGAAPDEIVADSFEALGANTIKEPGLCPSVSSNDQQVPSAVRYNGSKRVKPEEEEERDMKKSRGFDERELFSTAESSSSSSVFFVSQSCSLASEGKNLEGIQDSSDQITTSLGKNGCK
# Sequence of Drosophila cryptochrome (DmCRY) (O77059 whole entry): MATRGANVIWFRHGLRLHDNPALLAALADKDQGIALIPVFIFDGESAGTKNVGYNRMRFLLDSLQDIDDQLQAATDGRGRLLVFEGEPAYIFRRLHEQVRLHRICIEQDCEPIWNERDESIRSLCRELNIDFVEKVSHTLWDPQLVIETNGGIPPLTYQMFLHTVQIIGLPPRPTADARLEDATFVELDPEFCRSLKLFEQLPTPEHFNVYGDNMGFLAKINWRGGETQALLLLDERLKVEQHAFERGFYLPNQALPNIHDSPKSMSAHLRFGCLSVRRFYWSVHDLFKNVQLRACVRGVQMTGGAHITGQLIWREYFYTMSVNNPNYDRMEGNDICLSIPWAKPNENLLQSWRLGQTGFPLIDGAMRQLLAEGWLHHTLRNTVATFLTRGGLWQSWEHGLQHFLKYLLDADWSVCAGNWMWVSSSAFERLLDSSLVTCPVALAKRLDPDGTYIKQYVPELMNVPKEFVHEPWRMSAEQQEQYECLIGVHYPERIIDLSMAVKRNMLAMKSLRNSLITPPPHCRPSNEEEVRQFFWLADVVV
structure (smiles),measurement,setting,value
Cc1cc2nc3c(=O)[nH]c(=O)nc-3n(C[C@H](O)[C@H](O)[C@H](O)COP(=O)(O)OP(=O)(O)OC[C@H]3O[C@@H](n4cnc5c(N)ncnc54)[C@H](O)[C@@H]3O)c2cc1C [FAD],"copurification, absorption spectroscopy of native protein",zebrafish CRY4 (ZfCRY4),"both AtCRY2 (A,B) and ZfCRY4 (C,D), expressed with and without F0, contained FAD"
same,"copurification, absorption spectroscopy of native protein",[1],"exhibited only the spectra of enzyme-bound FAD (Fig. 4E,F)"
same,"copurification, absorption spectroscopy of native protein",[2],"both AtCRY2 (A,B) and ZfCRY4 (C,D), expressed with and without F0, contained FAD"
